From PubChem BioAssay AID2060885 (Molecular Pharmacology Branch, DTP, NCI, 2025)

System: NCI-H23 complex spheroids with HUVEC/MSC, viability
Assay: Anticancer human tumor NCI-H23 cell line growth inhibition [RAS];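 note: spheroids exposed to compound for 7 days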;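 for viability, T/C: 100% = DMSO vehicle control viability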
Conditions: for IC50: curve of first compound; for viability, T/C: stronger effect = lower value
Method in brief: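 Tumour cells grown as complex spheroids with HUVEC endothelial cells and mesenchymal stem cells, treated with RAS pathway inhibitor combinations. Each agent spans half-log steps from near clinical Cmax, or 10 microM where Cmax is unknown.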

[1] = second compound 0.0316 µM, first compound 0.00316 µM
[2] = second compound 0.0316 µM, first compound 0.01 µM
[3] = second compound 0.0316 µM, first compound 0.0316 µM
[4] = second compound 0.0316 µM, first compound 0.1 µM
[5] = second compound 0.0316 µM, first compound 0.316 µM
[6] = second compound 0.0316 µM, first compound 1 µM
[7] = second compound 0.1 µM, first compound 0.00316 µM
[8] = second compound 0.1 µM, first compound 0.01 µM
[9] = second compound 0.1 µM, first compound 0.0316 µM
[10] = second compound 0.1 µM, first compound 0.1 µM
[11] = second compound 0.1 µM, first compound 0.316 µM
[12] = second compound 0.1 µM, first compound 1 µM
[13] = second compound 0.316 µM, first compound 0.00316 µM
[14] = second compound 0.316 µM, first compound 0.01 µM
[15] = second compound 0.316 µM, first compound 0.0316 µM
[16] = second compound 0.316 µM, first compound 0.1 µM
[17] = second compound 0.316 µM, first compound 0.316 µM
[18] = second compound 0.316 µM, first compound 1 µM
[19] = second compound 1 µM, first compound 0.00316 µM
[20] = second compound 1 µM, first compound 0.01 µM
[21] = second compound 1 µM, first compound 0.0316 µM
[22] = second compound 1 µM, first compound 0.1 µM
[23] = second compound 1 µM, first compound 0.316 µM
[24] = second compound 1 µM, first compound 1 µM
[25] = second compound 0.0316 µM, first compound 0.000949 µM
[26] = second compound 0.0316 µM, first compound 0.003 µM
[27] = second compound 0.0316 µM, first compound 0.00949 µM
[28] = second compound 0.0316 µM, first compound 0.03 µM
[29] = second compound 0.0316 µM, first compound 0.0949 µM
[30] = second compound 0.0316 µM, first compound 0.3 µM
[31] = second compound 0.1 µM, first compound 0.000949 µM
[32] = second compound 0.1 µM, first compound 0.003 µM
[33] = second compound 0.1 µM, first compound 0.00949 µM
[34] = second compound 0.1 µM, first compound 0.03 µM
[35] = second compound 0.1 µM, first compound 0.0949 µM
[36] = second compound 0.1 µM, first compound 0.3 µM
[37] = second compound 0.316 µM, first compound 0.000949 µM
[38] = second compound 0.316 µM, first compound 0.003 µM
[39] = second compound 0.316 µM, first compound 0.00949 µM
[40] = second compound 0.316 µM, first compound 0.03 µM
[41] = second compound 0.316 µM, first compound 0.0949 µM
[42] = second compound 0.316 µM, first compound 0.3 µM
[43] = second compound 1 µM, first compound 0.000949 µM
[44] = second compound 1 µM, first compound 0.003 µM
[45] = second compound 1 µM, first compound 0.00949 µM
[46] = second compound 1 µM, first compound 0.03 µM
[47] = second compound 1 µM, first compound 0.0949 µM
[48] = second compound 1 µM, first compound 0.3 µM
[49] = second compound 3.16 µM, first compound 0.000949 µM
[50] = second compound 3.16 µM, first compound 0.003 µM
[51] = second compound 3.16 µM, first compound 0.00949 µM
[52] = second compound 3.16 µM, first compound 0.03 µM
[53] = second compound 3.16 µM, first compound 0.0949 µM
[54] = second compound 3.16 µM, first compound 0.3 µM
[55] = second compound 10 µM, first compound 0.000949 µM
[56] = second compound 10 µM, first compound 0.003 µM
[57] = second compound 10 µM, first compound 0.00949 µM
[58] = second compound 10 µM, first compound 0.03 µM
[59] = second compound 10 µM, first compound 0.0949 µM
[60] = second compound 10 µM, first compound 0.3 µM

C=CC(=O)N1CCN(c2nc(OCC3CCCN3C)nc3c(F)c(-c4nc(N)cc(C)c4C(F)(F)F)c(Cl)cc23)C(C)C1 (stereo not drawn) + C#Cc1c(F)ccc2cc(O)cc(-c3ncc4c(N5CC6CCC(C5)N6)nc(OCC56CCCN5CC(F)C6)nc4c3F)c12
IC50 (second compound 0.0316 µM): 11.5 nM | IC50 (second compound 0.1 µM): 19.2 nM | IC50 (second compound 0.316 µM): 24.2 nM | IC50 (second compound 1 µM): 13.8 nM | IC50 (second compound 3.16 µM): 11.3 nM | IC50 (second compound 10 µM): < 3.16 nM | viability, T/C [1]: 72.4% | viability, T/C [2]: 52.6% | viability, T/C [3]: 40.5% | viability, T/C [4]: 35.5% | viability, T/C [5]: 38% | viability, T/C [6]: 36.3% | viability, T/C [7]: 80.7% | viability, T/C [8]: 58.2% | viability, T/C [9]: 45.3% | viability, T/C [10]: 35.7% | viability, T/C [11]: 30.3% | viability, T/C [12]: 42.2% | viability, T/C [13]: 65.2% | viability, T/C [14]: 61.3% | viability, T/C [15]: 46.5% | viability, T/C [16]: 37.9% | viability, T/C [17]: 35% | viability, T/C [18]: 37.2% | viability, T/C [19]: 83.2% | viability, T/C [20]: 54.5% | viability, T/C [21]: 37.7% | viability, T/C [22]: 39.2% | viability, T/C [23]: 39.5% | viability, T/C [24]: 37.7% | viability, T/C (second compound 3.16 µM, first compound 0.00316 µM): 59.9% | viability, T/C (second compound 3.16 µM, first compound 0.01 µM): 55.9% | viability, T/C (second compound 3.16 µM, first compound 0.0316 µM): 38.4% | viability, T/C (second compound 3.16 µM, first compound 0.1 µM): 42.3% | viability, T/C (second compound 3.16 µM, first compound 0.316 µM): 39.8% | viability, T/C (second compound 3.16 µM, first compound 1 µM): 38.5% | viability, T/C (second compound 10 µM, first compound 0.00316 µM): 35.7% | viability, T/C (second compound 10 µM, first compound 0.01 µM): 39.6% | viability, T/C (second compound 10 µM, first compound 0.0316 µM): 42.4% | viability, T/C (second compound 10 µM, first compound 0.1 µM): 32.3% | viability, T/C (second compound 10 µM, first compound 0.316 µM): 30.4% | viability, T/C (second compound 10 µM, first compound 1 µM): 33.5%

CC1(C)CCC(Nc2ncc(C(F)(F)F)c(-c3c[nH]c4c(P(C)(C)=O)c(C#N)ccc34)n2)CN1 (stereo not drawn) + C#Cc1c(F)ccc2cc(O)cc(-c3ncc4c(N5CC6CCC(C5)N6)nc(OCC56CCCN5CC(F)C6)nc4c3F)c12
IC50 (second compound 0.0316 µM): 25.3 nM | IC50 (second compound 0.1 µM): > 300 nM | IC50 (second compound 0.316 µM): 13.3 nM | IC50 (second compound 1 µM): 5.95 nM | IC50 (second compound 3.16 µM): < 0.949 nM | IC50 (second compound 10 µM): < 0.949 nM | viability, T/C [25]: 77.4% | viability, T/C [26]: 95.5% | viability, T/C [27]: 64.1% | viability, T/C [28]: 46.9% | viability, T/C [29]: 42.9% | viability, T/C [30]: 53% | viability, T/C [31]: 105% | viability, T/C [32]: 87.7% | viability, T/C [33]: 60.6% | viability, T/C [34]: 46.7% | viability, T/C [35]: 44.5% | viability, T/C [36]: 59.2% | viability, T/C [37]: 82.9% | viability, T/C [38]: 75.6% | viability, T/C [39]: 52.2% | viability, T/C [40]: 44.8% | viability, T/C [41]: 35.6% | viability, T/C [42]: 40.8% | viability, T/C [43]: 83.2% | viability, T/C [44]: 60.8% | viability, T/C [45]: 42.7% | viability, T/C [46]: 38.2% | viability, T/C [47]: 39% | viability, T/C [48]: 36.8% | viability, T/C [49]: 45% | viability, T/C [50]: 37.9% | viability, T/C [51]: 33% | viability, T/C [52]: 28.4% | viability, T/C [53]: 33% | viability, T/C [54]: 31.4% | viability, T/C [55]: 29.7% | viability, T/C [56]: 29.1% | viability, T/C [57]: 25.1% | viability, T/C [58]: 21.7% | viability, T/C [59]: 19.3% | viability, T/C [60]: 18.4%

CCc1c2c(nc3ccc(O)cc13)-c1cc3c(c(=O)n1C2)COC(=O)[C@]3(O)CC + C#Cc1c(F)ccc2cc(O)cc(-c3ncc4c(N5CC6CCC(C5)N6)nc(OCC56CCCN5CC(F)C6)nc4c3F)c12
IC50 (second compound 0.0316 µM): 5.66 nM | IC50 (second compound 0.1 µM): 4.78 nM | IC50 (second compound 0.316 µM): 4.89 nM | IC50 (second compound 1 µM): 2.89 nM | IC50 (second compound 3.16 µM): 1.25 nM | IC50 (second compound 10 µM): < 0.949 nM | viability, T/C [25]: 74.6% | viability, T/C [26]: 75.5% | viability, T/C [27]: 29.9% | viability, T/C [28]: 13.3% | viability, T/C [29]: 9.2% | viability, T/C [30]: 5.86% | viability, T/C [31]: 87.8% | viability, T/C [32]: 64.6% | viability, T/C [33]: 28.2% | viability, T/C [34]: 14.7% | viability, T/C [35]: 9.07% | viability, T/C [36]: 6.92% | viability, T/C [37]: 96.7% | viability, T/C [38]: 67.8% | viability, T/C [39]: 25.4% | viability, T/C [40]: 12.8% | viability, T/C [41]: 9.27% | viability, T/C [42]: 5.24% | viability, T/C [43]: 86.9% | viability, T/C [44]: 49.4% | viability, T/C [45]: 18.9% | viability, T/C [46]: 12.2% | viability, T/C [47]: 7.17% | viability, T/C [48]: 4.02% | viability, T/C [49]: 56.1% | viability, T/C [50]: 30.8% | viability, T/C [51]: 11.7% | viability, T/C [52]: 5.93% | viability, T/C [53]: 3.68% | viability, T/C [54]: 2.2% | viability, T/C [55]: 31.7% | viability, T/C [56]: 20.2% | viability, T/C [57]: 8.85% | viability, T/C [58]: 5.36% | viability, T/C [59]: 3.22% | viability, T/C [60]: 2.27%

C=CC(=O)Nc1cc(Nc2nccc(-c3cn(C)c4ccccc34)n2)c(OC)cc1N(C)CCN(C)C + C=CC(=O)N1CCN(c2nc(OCC3CCCN3C)nc3c(F)c(-c4nc(N)cc(C)c4C(F)(F)F)c(Cl)cc23)C(C)C1
IC50 (second compound 0.00316 µM): 1000 nM | IC50 (second compound 0.01 µM): 7.6 nM | IC50 (second compound 0.0316 µM): 3.62 nM | IC50 (second compound 0.1 µM): < 3.16 nM | IC50 (second compound 0.316 µM): < 3.16 nM | IC50 (second compound 1 µM): < 3.16 nM | viability, T/C (second compound 0.00316 µM, first compound 0.00316 µM): 66.1% | viability, T/C (second compound 0.00316 µM, first compound 0.01 µM): 83.2% | viability, T/C (second compound 0.00316 µM, first compound 0.0316 µM): 56.1% | viability, T/C (second compound 0.00316 µM, first compound 0.1 µM): 53.5% | viability, T/C (second compound 0.00316 µM, first compound 0.316 µM): 57.2% | viability, T/C (second compound 0.00316 µM, first compound 1 µM): 49.6% | viability, T/C (second compound 0.01 µM, first compound 0.00316 µM): 51.5% | viability, T/C (second compound 0.01 µM, first compound 0.01 µM): 52.9% | viability, T/C (second compound 0.01 µM, first compound 0.0316 µM): 45.1% | viability, T/C (second compound 0.01 µM, first compound 0.1 µM): 36.9% | viability, T/C (second compound 0.01 µM, first compound 0.316 µM): 43.1% | viability, T/C (second compound 0.01 µM, first compound 1 µM): 37.1% | viability, T/C [1]: 49.4% | viability, T/C [2]: 48.3% | viability, T/C [3]: 40.4% | viability, T/C [4]: 35.2% | viability, T/C [5]: 37.1% | viability, T/C [6]: 33.6% | viability, T/C [7]: 45% | viability, T/C [8]: 39.4% | viability, T/C [9]: 33.8% | viability, T/C [10]: 34.4% | viability, T/C [11]: 29.6% | viability, T/C [12]: 27.3% | viability, T/C [13]: 44.7% | viability, T/C [14]: 43% | viability, T/C [15]: 34% | viability, T/C [16]: 32% | viability, T/C [17]: 29.4% | viability, T/C [18]: 35.5% | viability, T/C [19]: 39.2% | viability, T/C [20]: 41.5% | viability, T/C [21]: 36.9% | viability, T/C [22]: 34.9% | viability, T/C [23]: 30.9% | viability, T/C [24]: 28.3%
